# Like-named read-outs stand apart in the source and are kept apart here. No end group written: not given here.
# Legend:
# [1] = test system: ion channel; details: from manufacturer's data sheets and/or the literature; cited from earlier work
# [2] = test system: normal resting human T-cells; experiment: Cytokine (TNFα, IFNγ, IL-10, IL-4) secretion by resting T-cells, sandwich ELISA; type: cell-based; details: for cytokine secretion profile (TNFα, IFNγ, IL-4, IL-10): data not shown; for TNFα secretion in resting normal human T-cells: highest concentration used (DTX-K 100 nM), FIG. 18a
# Procedure: Human T-cells: Normal human T-cells were purified from peripheral blood of healthy donors as described (19, 23, 61), and the resulting cell population, containing ≧90% T-cells, was suspended in RPMI medium supplemented with 10% FCS, 1% LGlutamine and antibiotics (Biological Industries, Bet Haemek, Israel) and maintained at 2×10^6 cells/ml (37° C./5% CO2).
# Determination of TNFα, IFNγ, IL-10 and IL-4 by ELISA: Freshly-purified normal resting human T-cells (2×10^6/ml) were incubated in 24-well plates (Costar, Corning, N.Y.) and the various channel blockers were added. Importantly, no other stimulating molecule (e.g. phorbol esters, antigens, anti-CD3/CD28 mAbs) was added. Cytokine […] levels were measured in supernatants after 24 hr for TNFα and IFNγ and after 72 hr for IL-10 and IL-4, by quantitative sandwich ELISA (R&D, Minneapolis, Minn.), according to the manufacturer's instructions.
# [3] = test system: human cancer growing in SCID mice; type: in vivo
# [4] = test system: Normal human T-cells; type: cell-based
# Procedure: Normal human T-cells, isolated from fresh peripheral blood lymphocytes, were treated with 10 nM of neurotransmitters: either GnRH-II or dopamine (30 min or 24 hr at 37° C.). Following this neurotransmitter treatment, the T-cells were washed with phosphate-buffered saline (PBS) and […] with paraformaldehyde (PFA) for 20 min at room temperature (1×10^6 cells resuspended in 50 μl PBS+100 μl 0.5% PFA). The T-cells were then washed again with PBS and subjected to single immunofluorescence staining, using a mouse anti-human TCR/CD3zeta chain subunit (also called CD247) mAb (Serotec) at 1:100 dilution/1×10^6 cells, diluted in 10 μg/ml digitonin (Sigma) cold solution, for 30 min on ice. For isotype control, cells were stained with normal mouse serum (Jackson Immunoresearch Laboratories). The cells were then stained with a fluorescein isothiocyanate (FITC)-conjugated anti-mouse IgG (100 μl of 1:100 dilution; Jackson). Cells stained with the second Ab only served as additional negative controls. Fluorescence profiles were recorded in a FACSort.
# [5] = test system: human T-cells; details: data not shown
# [6] = SCID mice, preliminary evidence
molecule,measurement,setting,value
O=C(O)c1cc([N+](=O)[O-])ccc1NCCCc1ccccc1 [NPPB],effective concentrations,[1],100 to 200 µM
CCCCCCCCCCCCCC(=O)O[C@@H]1[C@@H](C)[C@@]2(O)[C@@H](C=C(CO)C[C@]3(O)C(=O)C(C)=C[C@@H]23)[C@@H]2C(C)(C)[C@]12OC(C)=O [PMA],"cytokine secretion profile (TNFα, IFNγ, IL-4, IL-10)",[2],"increased secretion of TNFα, IFNγ, IL-4 and IL-10"
C=C[C@H]1C[N@@]2CC[C@H]1C[C@H]2[C@H](O)c1ccnc2ccc(OC)cc12 [Quinine],TNFα secretion in resting normal human T-cells,[2]; 24 hours exposure,somewhat weaker effect
same,effective concentrations,[1],1 to 10 µM
NCCc1ccc(O)c(O)c1 [dopamine],overall in vivo activity of human tumor-specific T-cells against human cancer (cancer rejection),"[3]; mouse, in vivo",augmented significantly
same,number (percentage) of cells expressing CD3zeta,[4],clear increase
same,"number of T-cells expressing CD3zeta, longer-term exposure versus 30 minutes",[4],significantly more pronounced
N[C@@H](CCC(=O)O)C(=O)O [glutamate],overall in vivo activity of human tumor-specific T-cells against human cancer (cancer rejection),[3]; [6],augmented significantly
Dendrotoxin-K,dose dependence of TNFα secretion triggering,"[2]; 24 hours exposure, FIG. 18b",dose dependent
same,TNFα secretion in resting normal human T-cells,[2]; 24 hours exposure,marked TNFα secretion
same,TNFα secretion by T-cells from six different individuals,"[2]; 24 hr, 100 nM, FIG. 18c-h",triggered marked TNFα secretion
same,"cytokine secretion profile (TNFα, IFNγ, IL-4, IL-10)",[2],selectively increased only TNFα secretion
same,effect on cell survival of human T-cells,[5],no significant effect
same,effect on proliferation of human T-cells,[5],no significant effect
"GnRH-II (QHWSHGWYPG; ends and bridges not checked; UniProt O43555 24-33, looked up)",overall in vivo activity of human tumor-specific T-cells against human cancer (cancer rejection),[3]; [6],augmented significantly
same,intensity of CD3zeta expression (number of CD3zeta per T-cell),"[4]; 10 nM, 30 minutes exposure",very significant increase
same,number (percentage) of cells expressing CD3zeta,"[4]; 10 nM, 30 minutes exposure, no other molecules",very significant increase
Kaliotoxin,TNFα secretion in resting normal human T-cells,[2]; 24 hours exposure,somewhat weaker effect
same,effective concentrations,[1],0.001 to 0.1 µM
